melting point [°C]	SMILES
108 to 112	CCOC(=O)c1cc(-n2c(=O)c3c(n(C)c2=O)CCCC3)ccc1Cl
244 to 245	Nc1nnc(-c2ccc3ncn(-c4cccc(C(F)(F)F)c4)c3c2)o1
140 to 144	Cc1nccn1CC1CCc2c(c3ccccc3n2C)C1NO (stereo unspecified)
297	COC(=O)c1cc(=O)c2cc3[nH]c(=O)oc3cc2[nH]1
116	CN(C)C(=O)COc1ccc2c(-c3ccccc3F)noc2c1Cl
127 to 128	COc1ccc(Cc2ccc(NC3=NCCN3)cc2OC)cc1
192 to 194	CCNC(=O)c1cccc2[nH]n(C)c(=O)c12
70 to 90	Cc1cc(OCC(=O)NCc2ccccc2)ccc1N1CC(=O)NS1(=O)=O
145 to 146	COC(=O)C1=C(C)NC(CO)=C(C(=O)OC)C1c1cccc([N+](=O)[O-])c1 (stereo unspecified)
127 to 130	CC(C)(C)OC(=O)N[C@@H](C(=O)N1CCC[C@H]1C(=O)NCC1CCc2nc(N)ncc2C1)C(c1ccccc1)c1ccccc1 (stereo partly specified)
262 to 264	COc1cc2c(=O)c(S(C)=O)nn(C)c2cc1OC (stereo unspecified)
169 to 170	CC12CCC3C(CCC4CC(O)CCC43C)C1CCC2S (stereo unspecified)
258	COC(=O)CCCc1nc(Cl)c2c(n1)[nH]c1ccccc12
291 to 292	CCCN1c2nc(-c3cn[nH]c3)ccc2NC(=O)c2cccnc21
263	CC(C)(C)c1cc(Cn2nc(C=Cc3nn(Cc4cc(C(C)(C)C)c(O)c(C(C)(C)C)c4)c(=O)o3)oc2=O)cc(C(C)(C)C)c1O
140 to 141	CSC(=C[N+](=O)[O-])NCCCCc1csc(N(CC(F)(F)F)C(=N)N)n1
128 to 130	CCC1NC(=O)N(c2ccccc2)C(=O)N1OC(C)=O (stereo unspecified)
154 to 156	CC(=O)NCCC1=CCc2ccc3nc(C)oc3c21
135 to 136	COc1cc(C(=O)c2ccc(C)cc2)cc(C(=O)O)c1OC
229 to 230	Cn1c(=O)c2c(N)nccc2n(C)c1=O
143 to 144	COc1ccc2c(c1)OC(C)(C)C(NC(=O)c1cc(F)ccc1OC)C2=O (stereo unspecified)
215 to 220	O=C(NCc1ccccn1)Nc1cc(N2CC(Cc3ccccc3)CC2=O)ccn1 (stereo unspecified)
202 to 205	COc1ccc(NC(=O)c2sccc2S(=O)(=O)Nc2onc(C)c2Br)cc1
260 to 262	Cc1c(N2CC(O)C2)c(F)cc2c(=O)c(C(=O)O)cn(C3CC3)c12

melting point [°C]	SMILES
207	O=C(Nc1cccc(S(=O)(=O)C(F)(F)F)c1)c1cnn2c(C(F)(F)F)cc(-c3ccc(C(F)(F)F)cc3)nc12
156 to 158	CC(C)C(OC(=O)NC1(C(=O)O)CC1)OC(=O)C1CCCCC1 (stereo unspecified)
90 to 93	O=C1c2ccccc2C(=O)N1CCCOc1cccc(CN2CCOCC2)c1
149 to 150	CC(C)(C)c1cc(C[C@@H]2SCNC2=O)cc(C(C)(C)C)c1O
88 to 89	CC(=CC(=O)c1ccncc1)N(C)C
150 to 151	CCn1nc(Cc2c(Cl)cncc2Cl)c2ccc(OC)cc2c1=O
88 to 89	COc1cc2c(cc1OC)CN(c1cc(Cl)ncn1)CC2
253 to 255	N#Cc1cnc(-c2ccncc2)nc1N
211	O=C(C=Cc1ccc(C(F)(F)F)cc1)N1CCc2c([nH]c3ccccc23)C1c1ccccc1 (stereo unspecified)
250	O=C(Nc1ccccc1O)c1ccc(CS(=O)(=O)c2ccc(O)cc2)cc1
216	CN1CCN=C1C(C#N)=NO
88 to 90	CCCc1nc2ccc(OC(F)(F)F)cc2[nH]1
153 to 154	O=C(c1cc(Br)c(O)c(Br)c1)c1c(CCc2ccccc2)oc2ccccc12
175	CC(C(N)=O)c1ccc2c(c1)CCc1ccccc1C2=O (stereo unspecified)
138 to 140	CC(=O)C(=O)NC(=O)[C@@H](N)Cc1ccccc1
77 to 79	O=c1oc2ccccc2n1CCCl
159	O=[N+]([O-])c1ccc(Oc2c(Cl)cc(C(F)(F)F)cc2Cl)cc1S(=O)(=O)c1cc[nH]n1
133 to 134	Cn1cc(C(=O)Nc2ccccc2-c2ccc(F)c(Cl)c2)c(CF)n1
159 to 161	COc1cn(-c2ccc(-n3cccn3)cc2F)nc(C(C)=O)c1=O
118 to 119	COc1cc(C(=O)c2c(N)sc3c2CCN(C(=O)c2ccc(Cl)cc2)C3)ccc1OC(C)C
217 to 218	Cc1nc2cc(NC(=O)c3cc4cc(F)ccc4n3Cc3cccc(F)c3)ccn2c1-c1ccccc1
204	NC(N)=Nc1nc(-c2csc(CNC(=O)CSCc3ccco3)n2)cs1
187 to 188	CCn1nnc(Cc2ccc(NC(=O)/C=C/c3cnn(C)c3-c3ccc(F)cc3)cc2)n1
147 to 149	CN(C)c1ccc(NC(=O)N(C[C@@H]2CCC[C@H](CN(C(=O)Nc3ccc(N(C)C)cc3)C3CCCCCCC3)C2)C2CCCCCCC2)cc1

melting point [°C]	SMILES
256 to 258	Cn1cc(C2=C(c3cn(CCC(=O)O)c4ccccc34)C(=O)NC2=O)c2ccccc21
219 to 221	N#Cc1cnc2sc(S(=O)(=O)Cc3ccccc3)nn2c1=O
182 to 185	CCCCCCCCCCCCCC(=O)Nc1ccc(Cl)c(NC2=NN(c3c(Cl)cc(Cl)cc3Cl)C(=O)C2SCc2ccccc2)c1 (stereo unspecified)
134 to 138	OCc1cn(-c2cc(F)cc(Br)c2)cn1
159 to 160	CC(C(=O)O)c1cccc2c1Oc1ccccc1CC2=O (stereo unspecified)
101 to 102	CSc1nc2cccccc-2n1
222 to 224	Cc1csc(N2CCN(Cc3ccc(C(=O)O)cc3)C2=O)n1
140 to 141	CCCOC(Nc1ccccc1)(OCCC)c1ccnc(C(=O)c2ccc(Cl)cc2)c1
214 to 219	O=C1COc2cc(F)c(F)cc2N1
96 to 99	CCOC(=O)Cn1c(=O)sc2cccc(Oc3ccccc3)c21
140 to 142	CCCCc1nc(NC(=N)N)sc1-c1cccc([N+](=O)[O-])c1
131 to 133	CN(C)C=C1CN=C(c2ccccc2)c2ccccc2C1=O
139 to 141	CC1c2cccc3c2N(CC3)c2ccccc2N1C(=O)CCN1CCN(c2ccccc2)CC1 (stereo unspecified)
86 to 88	N#CCCc1cccc([N+](=O)[O-])c1
194 to 195	CCC1(CCC(=O)OC(C)(C)C)CCCN2CCc3c([nH]c4ccccc34)C21 (stereo unspecified)
178	COC(=O)C1=C(C)Nc2nccn2C1C1CCCCC1 (stereo unspecified)
217 to 219	O=C(Nc1ccc2c(c1)CCC2=O)c1ccc(-c2ccccc2)cc1
147 to 149	CCC(Oc1cccc(C)c1)C(=O)OC1CC(O)C=C2C=CC(C)C(CCC3CC(O)CC(=O)O3)C21 (mixture of isomers)
239 to 242	COc1ccc(Sc2cc3c(cc2Cl)C=C(C(=O)O)C(C(F)(F)F)O3)cc1 (stereo unspecified)
153 to 155	O=Cc1coc2cc(OC(=O)OCC(Cl)(Cl)Cl)c(OC(=O)OCC(Cl)(Cl)Cl)cc2c1=O
166 to 168	O=C(Nc1nc(O)cc(-c2ccccc2)n1)C(F)(F)F
157 to 160	O=C(NOCC(=O)N1CCCC1C(=O)O)NN1CCCC1C(=O)O (stereo unspecified)

SMILES	melting point [°C]
CCCC1CCC2(C)C(=CCC3C4CCC(=O)C4(C)CCC32)C1 (stereo unspecified)	103 to 105

Reference: a melting point compilation (Tetko et al.; mined from patent text by program, amines drawn as free bases though some values may be those of a salt)
